Results from US20260224675A1, “METHOD OF INHIBITING DEGRADING PROTEASE ACTIVITY IN THE SKIN” (The Regents of the University of California, priority 2023, published 2026).

How the values were obtained:
Type in all cases: in vivo
pancreatic trypsin [1] = test: Pancreatic trypsin accumulation in rat small intestine, immunohistochemistry; conditions: old rats, oral, two weeks; increase in old vs young rats
Excerpt: (§1) Male Wistar rats (Harlan Sprague Dawley Inc., Indianapolis, IN) at maturity (4 months, 300 to 350 gm) and old age (24 months, 375 to 450 gm) were included in the study. The animals were maintained on standard laboratory chow (8604 Teklad rodent diet; Harlan Laboratories, Indianapolis, IN) without restriction and water ad libitum and maintained in separated room without pathogen-free conditions. […] A subgroup of old animals was given over two weeks a pancreatic serine protease (trypsin) inhibitor (tranexamic acid, 14 days) in drinking water (137 mM, exchanged daily) which at a minimum fluid consumption of 40 ml/day amounts to a minimum dose of 0.39 gm/kg/day for 350 gm body weight.
(§2) Small intestine: Full thickness tissue blocks of the wall of proximal jejunum (3 by 5 mm) were fixed from all sides in 10% formaldehyde. Pancreatic trypsin and amylase were detected with primary (MoAb (D-1) and MoAb (G-10), respectively), and secondary antibodies labeled with DAB (Peroxidase Substrate Kit, ab64238, ABCAM).
(§3) Images of the immunolabel density were recorded from low power overviews of the tissue (10× objective, numerical aperture 0.25) under standard light conditions. Images were digitally analyzed to minimize operator error (NIH Image, 1.61, public domain software, spatial resolution of 640×480 pixel). […]

pancreatic trypsin [2] = test: Pancreatic trypsin accumulation in rat skin tissue, immunohistochemistry; conditions: old rats, two weeks
Excerpt: as §1, with “weight. […]” for “weight.”
To determine on the tissue sections the immunolabel density and distribution of pancreatic serine proteases, pancreatic trypsin MoAb (D-1): sc-137077(Santa Cruz) primary antibody was used, followed by secondary antibodies (MP-7601 for anti-rabbit IgG; MP-7602 for anti-mouse IgG; ImmPRESS Excel staining kit peroxidase). […] No counterstain was applied to facilitate quantitative label intensity measurements and since cellular and vascular structures are readily identified. […] All procedures were carried out under standardized conditions to permit quantitative comparison of label densities. […]

amylase = test: Pancreatic amylase accumulation in rat small intestine, immunohistochemistry; conditions: old rats, oral, two weeks; increase in old vs young rats
Excerpt: as §1, §2, §3

collagen = test: Rat skin tissue collagen fragmentation, collagen hybridizing peptide (B-CHP) labeling; conditions: old rats, two weeks
Excerpt: as §1, with “weight. […]” for “weight.”
Tissue sections were stained with B-CHP (stock solution, 150 mM; final applied solution 7.5. mM). […] The B-CHP label intensity on the sections was recorded by digital microscopy.
(§4) Images of the immunolabel density were recorded from low power overviews of the tissue (10× objective, numerical aperture 0.25) under standard light conditions. Images were digitally analyzed to minimize operator error (NIH Image, 1.61, public domain software, spatial resolution of 640×480 pixel).
The intensity of the immune substrate label was measured after color extraction in form of light intensity (1 corresponding to white, 256 corresponding to black). […]

[3] = system: mucin coat in the small intestine; test: Mucin coat in rat small intestine, alcian blue labeling; conditions: old rats (104 weeks), oral in drinking water, two weeks, vs old non-treated
Excerpt: as §1, with “weight. […]” for “weight.”
as §4
The intensity of the immune substrate label was measured after color extraction in form of light intensity (1 corresponding to white, 256 corresponding to black). The mean label density per group (with 3 animals per group) was determined from the average label density per animal (determined from 5 tissue sections/animal, 30 images/section).

NC[C@H]1CC[C@H](C(=O)O)CC1 [tranexamic acid]
pancreatic trypsin label density in the small intestine (pancreatic trypsin [1]): attenuated | pancreatic trypsin accumulation in skin tissue (pancreatic trypsin [2]): prevents trypsin accumulation | amylase label density in the small intestine (amylase): attenuated | collagen fragmentation in skin tissue (CHP) (collagen): prevents collagen fragmentation | mucin coat in the small intestine (alcian blue label) [3]: restoration of the mucin coat
